Source: US8143374B2, “Polypeptide derivatives of parathyroid hormone (PTH)” (The General Hospital Corporation, priority 2006, dated 2012)
Entries after “also recorded” stand apart in the source; their conditions may differ. Where no end group is shown, it is not given here.

Columns and labels:
[1] = Circular dichroism spectroscopy, helical residues per peptide chain; assay type: physicochemical; conditions: calculated from [θ]222
In short: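 CD spectra recorded at 20 °C, four scans averaged; peptide concentration checked by A280 with the single-Trp extinction coefficient of 5700 M^−1. Helical residues per chain calculated as −[θ]222×30/28,000 from mean residue ellipticity at 222 nm.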

wild-type human PTHR = molecular target: T1, wild-type human PTHR (Homo sapiens, UniProt Q03431); experiment: Competition binding in intact HKRK-B7 cells with 125I-PTH(1-34) tracer; conditions: for enhancement in apparent PTHR-binding affinity relative to parent peptide / detectable binding to the intact PTHR (in words) / reduction (alteration) of apparent binding affinity for the intact PTHR relative to parent peptide: HKRK-B7 cells; for enhancement in apparent PTHR-binding affinity relative to parent peptide: versus PTH(1-31)NH2; for IC50: hPTH(1-31)NH2 analogs, intact HKRK-B7 cells, 125I-[Nle8,21,Tyr34]ratPTH(1-34)NH2 tracer, read-out: PTHR-WT (HKRK-B7 cells) IC50; for reduction (alteration) of apparent binding affinity for the intact PTHR relative to parent peptide: versus the respective parent peptide
T1 construct: expressed in transfected cells
T1 sequence (Q03431 27-593): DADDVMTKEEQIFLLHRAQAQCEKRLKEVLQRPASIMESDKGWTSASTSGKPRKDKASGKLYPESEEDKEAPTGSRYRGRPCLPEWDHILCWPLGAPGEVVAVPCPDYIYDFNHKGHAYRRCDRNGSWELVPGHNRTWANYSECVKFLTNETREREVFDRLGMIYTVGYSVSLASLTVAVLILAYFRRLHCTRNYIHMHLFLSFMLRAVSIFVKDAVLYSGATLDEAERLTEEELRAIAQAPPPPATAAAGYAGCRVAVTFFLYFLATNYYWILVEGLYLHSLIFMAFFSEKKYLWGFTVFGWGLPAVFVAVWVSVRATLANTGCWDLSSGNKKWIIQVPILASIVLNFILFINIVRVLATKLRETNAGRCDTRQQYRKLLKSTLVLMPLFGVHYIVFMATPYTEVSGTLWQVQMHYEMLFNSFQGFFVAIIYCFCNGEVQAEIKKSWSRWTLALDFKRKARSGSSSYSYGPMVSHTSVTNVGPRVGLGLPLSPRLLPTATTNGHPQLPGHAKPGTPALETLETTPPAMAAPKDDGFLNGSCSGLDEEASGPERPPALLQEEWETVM
Procedure: Cell Culture—Cells were cultured at 37° C. in a humidified atmosphere containing 5% CO2 in Dulbecco's modified Eagle's medium (DMEM), supplemented with 10% fetal bovine serum (HyClone, Logan Utah), 100 units/ml penicillin G, and 100 ug/ml streptomycin penicillin G/streptomycin (Invitrogen Corp. Carlsbad, Calif.). For binding and cAMP studies performed with the intact PTHR, the HKRK-B7 and ROS 17/2.8 cell lines were used. HKRK-B7 cells are derived from the porcine kidney cell line LLC-PK1 and express, via stable DNA transfection, the wild-type human PTHR at an approximate surface density of 950,000 PTH-binding sites per cell. ROS 17/2.8 cells are rat osteosarcoma cells and express the endogenous PTHR at an approximate surface density of 80,000 PTH-binding sites per cell. The cells were plated and assayed in 24-well plates.
Receptor binding—Binding to the wild-type human PTHR in intact HKRK-B7 cells and ROS 17/2.8 cells was assessed using ^125I-PTH(1-34) as a tracer radioligand, as described (Shimizu, M., (2001) Endocrinology 142:3068-3074). In brief, the cells in 24-well plates (about 500,000 cells per well) were incubated in binding buffer containing radioligand (about 100,000 cpm per well) with or without unlabeled peptide ligand (3×10^−9 to 1×10^−5 M) for four hours at 15° C. The binding mixture was then removed by aspiration, the cells were rinsed three times with binding buffer, lysed in 1 M NaOH, and the entire lysate was counted for gamma-irradiation in a gamma counter. Binding to PTHR-delNt in COS-7 cell membranes was assessed in 96-well, vacuum filtration plates (Multiscreen-Durapore HV, […] membranes, Millipore Corp., Millford, Mass.) using ^125I-[Aib^1,3,M]PTH(1-15)NH2 as a tracer radioligand, as described (Dean, T., (2006) Mol Endocrinol 20:931-942). In brief, cell membranes (20 μg/well) were incubated in membrane binding buffer containing radioligand (30,000 cpm/well) with or without unlabeled peptide ligand (3×10^−9 to 1×10^−5 M) for 90 minutes at 21° C. The plates were then subject to rapid vacuum filtration, the filters were washed once with buffer, detached from the plate and counted for gamma-irradiation in a gamma counter. Non-specific binding was defined as the binding observed in the presence of 1×10^−6 M PTH(1-31)NH2 for HKRK-B7 and ROS 17/2.8 cells, and 1×10^−6 M [Aib^1,3,M]PTH(1-15)NH2 for PTHR-delNt. Specifically bound radioactivity was calculated as a percentage of the radioactivity specifically bound in the absence of competing ligand.
Data and statistical calculations—Data were processed for curve fitting and derivation of IC50 and EC50 values using least-squares, nonlinear regression analysis and the four parameter logistic equation: […], where y, ymin and ymax are the observed, minimum and maximum response values, respectively; x is ligand concentration, and n is the slope factor. In cases where incomplete inhibition of binding occurred: i.e. with certain PTH(1-31) analogs binding to PTHR-delNt, the curve fits and IC50 values were derived by extrapolating the data to the maximum inhibition attained by [Aib^1,3,M]PTH(1-15)NH2. Paired data sets were statistically compared using a two-tailed Student's t-test, assuming unequal variances for the two sets.

ROS 17/2.8 cells = molecular target: T2, ROS 17/2.8 cells (Rattus norvegicus, UniProt P25961); conditions: position-20 substitutions in PTH(1-31)NH2; cited from earlier work
T2 construct: ROS 17/2.8 cells are rat osteosarcoma cells and express the endogenous PTHR; host or cells: ROS 17/2.8 cells
T2 sequence (P25961 27-591): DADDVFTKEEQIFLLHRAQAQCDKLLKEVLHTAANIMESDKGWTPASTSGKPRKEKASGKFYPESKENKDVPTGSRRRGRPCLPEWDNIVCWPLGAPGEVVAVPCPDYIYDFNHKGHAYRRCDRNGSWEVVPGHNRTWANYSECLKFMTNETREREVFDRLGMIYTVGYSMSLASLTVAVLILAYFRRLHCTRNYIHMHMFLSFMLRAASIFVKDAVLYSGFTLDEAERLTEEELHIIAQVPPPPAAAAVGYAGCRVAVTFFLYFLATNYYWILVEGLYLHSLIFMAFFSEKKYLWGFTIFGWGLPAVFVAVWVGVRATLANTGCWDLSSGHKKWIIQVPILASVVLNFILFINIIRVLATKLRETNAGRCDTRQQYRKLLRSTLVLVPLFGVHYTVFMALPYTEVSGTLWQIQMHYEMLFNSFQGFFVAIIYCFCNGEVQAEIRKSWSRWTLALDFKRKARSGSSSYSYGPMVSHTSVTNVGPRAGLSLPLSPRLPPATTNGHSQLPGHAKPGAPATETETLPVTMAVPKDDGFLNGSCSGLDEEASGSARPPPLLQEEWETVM

Q: Which CD helical residues ([1]; hPTH(1-31)NH2 analogs) does the source give for “SVSEIQLMHNLGKHLNSMARVEWLRKKLQDV-NH2 [Glu^19→Ala]” here?
A: 9

Q: And the “enhancement in apparent PTHR-binding affinity relative to parent peptide” value (wild-type human PTHR)?
A: ≦two-fold

Q: What about the IC50 (wild-type human PTHR) of the same substance?
A: 0.049 ± 0.011 µM

Q: Which CD helical residues ([1]; hPTH(1-31)NH2 analogs) does the source give for “SVSEIQLMHNLGKHLNSMEAVEWLRKKLQDV-NH2 [Arg^20→Ala]” here?
A: 10

Q: And the “detectable binding to the intact PTHR (in words)” value (wild-type human PTHR)?
A: abolished detectable binding altogether; also recorded: abolished binding to the PTHR

Q: And the IC50 (wild-type human PTHR)?
A: > 10 µM

Q: For “SVSEIQLMHNLGKHLNSMEEVEWLRKKLQDV [Arg^20→Glu]”, which CD helical residues ([1]; [Ala1,Arg19]hPTH(1-31)NH2 analogs) is on record?
A: 8

Q: And the CD helical residues ([1]; hPTH(1-31)NH2 analogs)?
A: 7

Q: And the “detectable binding to the intact PTHR (in words)” value (wild-type human PTHR)?
A: abolished detectable binding; also recorded: complete loss of detectable binding affinity

Q: What does the source list for “SVSEIQLMHNLGKHLNSMEKVEWLRKKLQDV-NH2 [Arg^20→Lys]”?
A: CD helical residues ([1]; hPTH(1-31)NH2 analogs): 8; detectable binding to the intact PTHR (in words) (wild-type human PTHR): complete loss of detectable binding affinity; IC50 (wild-type human PTHR): > 10 µM; reduction of cAMP-stimulating potency (ROS 17/2.8 cells): abolished activity altogether

Q: What does the source list for “SVSEIQLMHNLGKHLNSMEQVEWLRKKLQDV-NH2 [Arg^20→Gln]”?
A: CD helical residues ([1]; hPTH(1-31)NH2 analogs): 7; detectable binding to the intact PTHR (in words) (wild-type human PTHR): complete loss of detectable binding affinity; IC50 (wild-type human PTHR): > 10 µM

Q: What does the source list for “SVSEIQLMHNLGKHLNSMERAEWLRKKLQDV-NH2 [Val^21→Ala]”?
A: CD helical residues ([1]; hPTH(1-31)NH2 analogs): 10; reduction (alteration) of apparent binding affinity for the intact PTHR relative to parent peptide (wild-type human PTHR): three- to four-fold

Q: With “SVSEIQLMHNLGKHLNSMERVAWLRKKLQDV-NH2 [Glu^22→Ala]” as the substance, how does the CD helical residues ([1]; hPTH(1-31)NH2 analogs) read?
A: 9

Q: And the “enhancement in apparent PTHR-binding affinity relative to parent peptide” value (wild-type human PTHR)?
A: ≦two-fold

Q: For “SVSEIQLMHNLGKHLNSMERVEALRKKLQDV-NH2 [Trp^23→Ala]”, which CD helical residues ([1]; hPTH(1-31)NH2 analogs) is on record?
A: 7

Q: What about the “reduction (alteration) of apparent binding affinity for the intact PTHR relative to parent peptide” value (wild-type human PTHR) of the same substance?
A: 19 fold

Q: With “SVSEIQLMHNLGKHLNSMERVEWARKKLQDV-NH2 [Leu^24→Ala]” as the substance, how does the CD helical residues ([1]; hPTH(1-31)NH2 analogs) read?
A: 7

Q: And the “reduction (alteration) of apparent binding affinity for the intact PTHR relative to parent peptide” value (wild-type human PTHR)?
A: 12 fold

Q: Which CD helical residues ([1]; hPTH(1-31)NH2 analogs) does the source give for “SVSEIQLMHNLGKHLNSMERVEWLAKKLQDV-NH2 [Arg^25→Ala]” here?
A: 7

Q: And the “reduction (alteration) of apparent binding affinity for the intact PTHR relative to parent peptide” value (wild-type human PTHR)?
A: three- to four-fold

Q: With “SVSEIQLMHNLGKHLNSMERVEWLRAKLQDV-NH2 [Lys^26→Ala]” as the substance, how does the CD helical residues ([1]; hPTH(1-31)NH2 analogs) read?
A: 7

Q: What about the IC50 (wild-type human PTHR) of the same substance?
A: 0.125 ± 0.008 µM

Q: Which results are given for “SVSEIQLMHNLGKHLNSMERVEWLRKALQDV-NH2 [Lys^27→Ala]”?
A: CD helical residues ([1]; hPTH(1-31)NH2 analogs): 9; reduction (alteration) of apparent binding affinity for the intact PTHR relative to parent peptide (wild-type human PTHR): three- to four-fold

Q: For “SVSEIQLMHNLGKHLNSMERVEWLRKKAQDV-NH2 [Leu^28→Ala]”, which CD helical residues ([1]; hPTH(1-31)NH2 analogs) is on record?
A: 8

Q: What about the “reduction (alteration) of apparent binding affinity for the intact PTHR relative to parent peptide” value (wild-type human PTHR) of the same substance?
A: three- to four-fold

Q: Which results are given for “SVSEIQLMHNLGKHLNSMERVEWLRKKLADV-NH2 [Gln^29→Ala]”?
A: CD helical residues ([1]; hPTH(1-31)NH2 analogs): 9; enhancement in apparent PTHR-binding affinity relative to parent peptide (wild-type human PTHR): ≦two-fold

Q: What does the source list for “SVSEIQLMHNLGKHLNSMERVEWLRKKLQDA-NH2 [Val^31→Ala]”?
A: CD helical residues ([1]; hPTH(1-31)NH2 analogs): 9; reduction (alteration) of apparent binding affinity for the intact PTHR relative to parent peptide (wild-type human PTHR): three- to four-fold

Q: Which CD helical residues ([1]; hPTH(1-31)NH2 analogs) does the source give for “SVSEIQLMHNLGKHLNSMRRVAWLRKKLQDV-NH2 [Glu^19,22→Arg,Ala]” here?
A: 8

Q: What about the “enhancement in apparent PTHR-binding affinity relative to parent peptide” value (wild-type human PTHR) of the same substance?
A: did not lead to further improvements

Q: And the IC50 (wild-type human PTHR)?
A: 0.054 ± 0.013 µM

Q: Which results are given for “SVSEIQLMHNLGKHLNSMRRVEWLRKKLQDV-NH2 [Glu^19→Arg]”?
A: CD helical residues ([1]; hPTH(1-31)NH2 analogs): 8; enhancement in apparent PTHR-binding affinity relative to parent peptide (wild-type human PTHR): ≦two-fold
